Data reported in patent US20090208583A1, “TABLETS COMPRISING CANDESARTAN CILEXETIL” (Siegfried Generics International AG, priority 2006, published 2009).
Counter-ions that a name gives are not always drawn.

Experiments:
[1] = Storage stability of Example 1 tablets, contamination profile (HPLC peak area); conditions: for result with further compounds having a stabilizing action (in words): used instead of triethyl citrate and simethicone, analogously to the preceding examples
[2] = Storage stability of tablets of Examples 2 to 5, amended HPLC method; type: physicochemical; conditions: tablets of Examples 2 to 5, 50° C., 2 weeks
Text: Example 1 was repeated, but with the compounds and concentrations stated in Table 2. Triethyl citrate was applied to a mixture of the active compound, lactose and maize starch, the mixture was granulated with an aqueous solution of hydroxypropylcellulose, the granules were worked up with the additives listed in Table 2 to give the finished end mixture and this mixture was pressed to tablets with a rotary tablet press (Fette P1). Tablets with two different pressing pressures, or two different hardnesses (50 N and 80 N) were prepared and were stored in open brown glass containers at 50° C. for at least two weeks. At the same time, the end mixture which had not been subjected to pressure was stored at 4° C. in closed brown glass containers for the same period of time as a reference sample for comparison.
The tablets from Examples […], 3, 4 and 5 were investigated with an amended HPLC method, which led to other retention times. In this, the peaks correspond to the following compounds:
Peak at 1.7-1.8 min=desethyl-candesartan cilexetil Peak at 3.8-3.9 min=candesartan cilexetil Peak at 9.1-9.2 min=N-ethyl-candesartan cilexetil

result with further compounds having a stabilizing action (in words) [1] | stabilizing action for candesartan cilexetil tablets during storage (in words) ([1]; Example 1 tablets, 50° C., two weeks) | stabilizing action (in words) [2] | SMILES
Analogous results |  |  | CCCCOC(=O)CCCCCCCCC(=O)OCCCC [dibutyl sebacate]
Analogous results |  |  | CCCCOC(=O)CC(O)(CC(=O)OCCCC)C(=O)OCCCC [tributyl citrate]
 | stabilizing action | stabilizing action | CCOC(=O)CC(O)(CC(=O)OCC)C(=O)OCC [triethyl citrate]
Analogous results |  |  | COC(=O)CC(O)(CC(=O)OC)C(=O)OC [trimethyl citrate]

SMILES | result with further compounds having a stabilizing action (in words) [1] | stabilizing action for candesartan cilexetil tablets during storage (in words) ([1]; Example 1 tablets, 50° C., two weeks) | stabilizing action (in words) [2]
CCOC(=O)c1ccccc1C(=O)OCC [diethyl phthalate] | Analogous results |  | 
COC(=O)c1ccccc1C(=O)OC [dimethyl phthalate] | Analogous results |  | 
